In patent US10202360B2 (CELGENE QUANTICEL RESEARCH, INC., priority 2016, dated 2019):

Legend:
CREBBP = CREBBP (Homo sapiens (Human), UniProt Q92793); test: In vitro enzyme inhibition assay - CREBBP inhibition (AlphaScreen, biotinylated H4-tetraacetyl peptide); type: binding
Outline: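 His-tagged CREBBP expressed in E. coli (50 nM final) incubated with biotinylated H4K5/8/12/16(Ac) peptide (20 nM final) in HEPES pH 7.3 buffer, 0.4% DMSO, 20 min at room temperature.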

BRD4 = BRD4 (Homo sapiens (Human), UniProt O60885); test: In vitro enzyme inhibition assay - BRD4 inhibition (as described in U.S. Pat. No. 9,034,900); type: binding; conditions: Table 29; BRD4 BD1
[1] = Table 28, AlphaScreen, H4-tetraacetyl peptide

Chain of CREBBP (Q92793 1081-1197): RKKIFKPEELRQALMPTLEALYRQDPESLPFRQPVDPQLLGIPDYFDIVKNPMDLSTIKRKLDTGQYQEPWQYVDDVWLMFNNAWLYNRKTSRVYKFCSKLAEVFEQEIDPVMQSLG

Row | IC50 (CREBBP; Table 29) [nM] | IC50 (BRD4) [nM] | IC50 (CREBBP; [1]) [nM] | Compound
1 | > 5000 | < 500 |  | Cc1cc(-c2nc(NS(C)(=O)=O)ncc2Oc2ccc(F)cc2F)cn(C)c1=O [N-(5-(2,4-difluorophenoxy)-4-(1,5-dimethyl-6-oxo-1,6-dihydropyridin-3-yl)-pyrimidin-2-yl)methanesulfonamide]
2 | < 500 | > 5000 | < 500 | CCCCS(=O)(=O)Nc1cc(-c2cc(Cl)c(=O)n(C)c2)nc(Oc2c(C)cccc2C)n1 [Example 87, N-(6-(5-chloro-1-methyl-6-oxo-1,6-dihydropyridin-3-yl)-2-(2,6-dimethylphenoxy)pyrimidin-4-yl)butane-1-sulfonamide]
3 | < 500 | > 5000 | < 500 | CCCCS(=O)(=O)Nc1cc(-c2cc(C)c(=O)n(C)c2)nc(Oc2c(C)cccc2C)n1 [Example 72, N-(6-(1,5-dimethyl-6-oxo-1,6-dihydropyridin-3-yl)-2-(2,6-dimethylphenoxy)pyrimidin-4-yl)butane-1-sulfonamide]
4 | < 500 | > 5000 | < 500 | CCCCS(=O)(=O)Nc1cc(-c2cc(C)c(=O)n(C)c2)nc(Oc2c(Cl)cccc2CC)n1 [Example 41, Butane-1-sulfonic acid [2-(2-chloro-6-ethyl-phenoxy)-6-(1,5-dimethyl-6-oxo-1,6-dihydro-pyridin-3-yl)-pyrimidin-4-yl]-amide]
5 | < 500 | 500 to 5000 | < 500 | Cc1cccc(Cl)c1Oc1nc(NS(=O)(=O)C(C)C)cc(-c2cc(C)c(=O)n(C)c2)n1 [Example 3, Propane-2-sulfonic acid [2-(2-chloro-6-methyl-phenoxy)-6-(1,5-dimethyl-6-oxo-1,6-dihydro-pyridin-3-yl)-pyrimidin-4-yl]-amide]
6 | < 500 | 500 to 5000 | < 500 | CCCCS(=O)(=O)Nc1cc(-c2cc(C)c(=O)n(C)c2)nc(Oc2c(C)cccc2Cl)n1 [Example 14, Butane-1-sulfonic acid [2-(2-chloro-6-methyl-phenoxy)-6-(1,5-dimethyl-6-oxo-1,6-dihydro-pyridin-3-yl)-pyrimidin-4-yl]-amide]
7 | < 500 | > 5000 | < 500 | CCCCS(=O)(=O)Nc1cc(-c2ccc(=O)n(C)c2)nc(Oc2c(C)cccc2F)n1 [Example 113, Butane-1-sulfonic acid [2-(2-fluoro-6-methyl-phenoxy)-6-(1-methyl-6-oxo-1,6-dihydro-pyridin-3-yl)-pyrimidin-4-yl]-amide]
8 | > 5000 | < 500 |  | CCS(=O)(=O)Nc1ncc(Oc2ccc(F)cc2F)c(-c2cc(C)c(=O)n(C)c2)n1 [N-(5-(2,4-difluorophenoxy)-4-(1,5-dimethyl-6-oxo-1,6-dihydropyridin-3-yl)-pyrimidin-2-yl)ethanesulfonamide]
9 | < 500 | > 5000 | < 500 | Cc1cc(Cl)cc(Cl)c1Oc1nc(NS(=O)(=O)C(C)C)cc(-c2cc(C)c(=O)n(C)c2)n1 [Example 33, Propane-2-sulfonic acid [2-(2,4-dichloro-6-methyl-phenoxy)-6-(1,5-dimethyl-6-oxo-1,6-dihydro-pyridin-3-yl)-pyrimidin-4-yl]-amide]
